“Also recorded” adds a separate entry of the source.
Assays:
X10 BTICs = conditions: X10 BTICs; cited from earlier work
X16 BTICs = conditions: X16 BTICs; cited from earlier work
bromodomain of BRG1 = target: T1, bromodomain of BRG1 (Homo sapiens, UniProt P51532); assay: thermal shift assay of the BRG1 bromodomain in MT330 GBM cells; assay type: binding; conditions: 44.5° C. to 55.6° C.; PFI-3 30 μM, IV-073 20 μM, two hours; compared to DMSO
T1 construct: The assay involved the use of the bromodomain of BRG1 in MT330 GBM cells; expressed in transfected cells; host or cells: MT330 GBM cells
Description: FIG. 3 is a series of immunoblot images showing the effects of Brahma-related gene-1 bromodomain inhibitors (BRIs) on the stability of the bromodomain of Brahma-related gene-1 in a thermal assay shift of the bromodomain in glioblastoma cells over a temperature range from 44.5 degrees Celsius (° C.) to 55.6° C. Cells were treated with (middle) PFI-3 (30 micromolar (μM)) for two hours or (right), a PFI-3 analog of the presently disclosed subject matter (IV-073) (20 μM) for two hours. For comparison, control cells treated with dimethyl sulfoxide (DMSO) are shown at […].
To further study the activity of the presently disclosed PFI-3 analogs, a thermal shift assay was employed. The assay involved the use of the bromodomain of BRG1 in MT330 GBM cells at temperatures ranging from 44.5° C. to 55.6° C.

[1] = system: LN229 TMZ-resistant glioma cell line; assay: IncuCyte live cell imaging proliferation assay; assay type: cell-based; conditions: for sensitization to TMZ: BRI 1 μM combined with 100 μM TMZ; for effect on cell growth: BRI alone (1 μM)
Description: (§1) FIG. 2A is a graph showing relative growth of temozolomide (TMZ)-resistant glioma cells (LN229 cells) alone (control); after treatment with 100 micromolar (μM) TMZ; after treatment with a Brahma-related gene-1 bromodomain inhibitor (BRI), PFI-3 (1 μM); or after treatment with both TMZ and PFI-3 (combined).
as §1, with “2B” for “2A”, “IV-073” for “PFI-3”
as §1, with “2C” for “2A”, “LN229 Temozolomide” for “temozolomide”, “cells” for “cells (LN229 cells)”, “IV-077” for “PFI-3”
as §1, with “2D” for “2A”, “LN229 Temozolomide” for “temozolomide”, “cells” for “cells (LN229 cells)”, “IV-085” for “PFI-3”
To determine whether PFI-3 (also called YH-IV-081) and its analogs (referred to herein as “PAs”) enhanced TMZ sensitivity IncuCyte live cell imaging proliferation assays (high throughput system) were performed with the LN229 TMZ-resistant glioma cell line.

GBM cells [2] = assay: overall statements on GBM cell death and sensitization to TMZ; assay type: cell-based; conditions: for sensitizing activity to TMZ compared to PFI-3: in vitro and in an animal model of GBM; for GBM cell death: used alone
Description: The syntheses of two exemplary PA BRIs, referred to herein as YH-IV-073 (or IV-073), and YH-IV-077 (or IV-077), as well as of PFI-3 (also referred to herein as YH-IV-081), are shown in Scheme 2, below. As shown in Scheme 2, commercially available tert-butyloxycarbonyl (BOC)-protected amine 1 is contacted with 2-bromopyridine (2) to form intermediate 3. The protecting group can be removed (e.g., via hydrolysis) to give the corresponding amine 4. Compound 4 can be coupled with a carboxylic acid (5, 6, or 7) to afford target YH-IV-073, YH-IV-077 and YH-IV-081, respectively. […] These analogs will provide greater insight into the importance of substitution of the A ring.
The synthetic route shown in Scheme 3, below, was used to synthesize new analogs with different substituents in the 2-position of the A-ring, such as YH-IV-085. As shown in Scheme 3, a commercially available 1-phenylprop-2-yn-1-one (e.g., 8 or 9) can be reacted with BOC-protected amine compound 1 to afford a BOC-protected intermediate (e.g., 10 or 11), which can be hydrolyzed to provide corresponding deprotected intermediate (12 or 13). The intermediates can be coupled with the 2-bromopyridine (2) to yield target compounds (e.g., 14 or YH-IV-085), respectively. YH-IV-085 is believed to be the first PFI-3 analog prepared without a 2-hydroxy moiety in the A-ring.

[3] = target: T2, GFP-tagged bromodomain of BRG1 (GFP-BRG1 BRD) (Homo sapiens, UniProt P51532); assay: nuclear localization of fluorescently tagged BRG1 bromodomain in MT330 GBM cells; assay type: cell-based; conditions: PFI-3 10 or 30 μM; IV-073 5, 10 or 30 μM; compared to DMSO
T2 construct: a fluorescently tagged bromodomain of BRG1 expressed in MT330 GBM cells; expressed in transfected cells; host or cells: MT330 GBM cells
Description: FIG. 4 is a series of fluorescence microscopy images showing the effects of Brahma-related gene-1 bromodomain inhibitors (BRIs) on the nuclear localization of a green fluorescent protein (GFP)-tagged bromodomain of Brahma-related gene-1 (GFP-BRG1 BRD).
The effects of PFI-3 and its analogs on the nuclear localization of a fluorescently tagged bromodomain of BRG1 expressed in MT330 GBM cells was studied. In the control samples, the fluorescent bromodomain is localized to the nucleus. However, an inhibitor displaces it from the nucleus and the fluorescence signal markedly decreases because it is degraded in the cytoplasm.

X16 BTIC = X16 BTIC mouse flank xenografts; assay type: in vivo, mice; conditions: combined with TMZ; for tumor growth: 2 weeks post-treatment, compared with PFI-3 and TMZ, BRI 0.5 μg/mouse, TMZ 0.25 mg/mouse IP alternate days
Description: FIG. 1F is a graph showing the effect of temozolomide (TMZ) on the tumorigenicity of control (black portion of bars) and Brahma-related gene-1-knock-down (BRG1-KD) (grey portion of bars) brain-tumor initiating cells (BTICs) after injection of 10^6 tumor cells into the flanks of immunodeficient mice. Live animal imaging preformed at weekly intervals. After confirming tumor initiation by live animal imaging, mice were treated with TMZ by interperitoneal (IP) injection (10 milligrams per kilogram (mg/kg) on alternate days). The reduction in tumor volume was calculated at 1 week (left) and 2 weeks (right) post-treatment. *p≤0.05.
FIG. 5 is a graph showing the effect of Brahma-related gene-1 bromodomain inhibitors (BRIs), PFI-3 and the PFI-3 analogs (PAs) IV-073, IV-077, and IV-085, on the anticancer activity of temozolomide (TMZ) on brain-tumor initiating-cell (BTIC) tumor growth. BTICs (10^6 cells) from X16 glioblastoma were injected into the flanks of immunodeficient mice. After confirming tumor initiation by live animal imaging, mice were treated with PFI-3 or a PA (0.5 microgram per mouse (μg/mouse)) and TMZ (0.25 mg/mouse) by intrarperitoneal (IP) injection on alternate days. The reduction in tumor volume was calculated at 2 weeks post-treatment.
BRG1 loss sensitizes BTICs to TMZ in vitro and in vivo: Although the alkylating agent TMZ is front-line chemotherapy in the treatment of GBM, a significant clinical problem is intrinsic or adaptive resistance to TMZ.^63 To evaluate TMZ sensitivity, GBM6 or X16 BTICs were treated with 300 μM or 500 μM TMZ, and cell proliferation was determined. […] Since BRG1 has been implicated in DNA double-strand break repair,^65-67 it was hypothesized that BRG1 loss in BTICs would sensitize BTICs to TMZ. […] To determine whether BRG1-KD sensitized BTICs to TMZ in vivo, animal studies were conducted with control (scrambled shRNA) and BRG1-KD X16 BTICs injected into the flanks of NSG mice. After tumor initiation was confirmed by live animal imaging, mice were treated with TMZ. […] Thus, despite X16 BRG1-KD BTICs producing larger tumors, the tumors were sensitized to TMZ therapy.
In contrast, all mice with single drug treatment had to be euthanized because the tumors had reached […] by 3 weeks post-treatment.

GBM cells [4] = assay: survival of mice after intracranial injection of GBM cells; assay type: in vivo; conditions: combination with TMZ, intraperitoneal, 10 mg/kg body weight
Description: FIG. 6 is a graph showing the survival curves (percent survival versus days after treatment) of mice after intracranial injection of glioblastoma (GBM) cells and intraperitoneal injection of temozolomide (TMZ) or combinations of TMZ and a Brahma-related gene-1 bromodomain inhibitors (BRIs): PFI-3 or one of the presently disclosed PFI-3 analogs (PAs) IV-073 or IV-085. Five mice per group were treated with TMZ with or without the BRI (10 milligrams per kilogram (mg/kg) body weight.
TMZ with or without a BRI was also tested in mice after intercranial injection of GBM cells.

T1 sequence (P51532 1453-1564 limits assumed): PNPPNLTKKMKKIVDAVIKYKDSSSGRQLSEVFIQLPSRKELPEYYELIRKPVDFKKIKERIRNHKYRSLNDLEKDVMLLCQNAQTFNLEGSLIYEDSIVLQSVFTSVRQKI
T2 sequence (P51532 1453-1564 limits assumed): as above

SMILES	Carmustine sensitivity (X10 BTICs)	Carmustine sensitivity (X16 BTICs)	stabilization of the BRG1 bromodomain (bromodomain of BRG1)	sensitization to TMZ [1]	effect on cell growth [1]	sensitizing activity to TMZ compared to PFI-3 (GBM cells [2]; listed as YH-IV-073)	GBM cell death (GBM cells [2])	displacement of the BRG1 bromodomain from the nucleus [3]	tumor growth (X16 BTIC)	tumors after treatment for 8 weeks (X16 BTIC)	sensitizing activity to TMZ compared to PFI-3 (GBM cells [2])	animal survival (GBM cells [4])
O=NN(CCCl)C(=O)NCCCl [Carmustine]	highly resistant	highly resistant	–	–	–	–	–	–	–	–	–	–
O=C(/C=C/N1C[C@H]2C[C@@H]1CN2c1ccccn1)c1cc(F)ccc1O [IV-073, (E)-1-(5-fluoro-2-hydroxyphenyl)-3-((1R,4R)-5-(pyridin-2-yl)-2,5-diazabicyclo[2.2.1]heptan-2-yl)prop-2-en-1-one]	–	–	more effective in stabilizing the bromodomain	potently sensitized	relatively minor effects on cell growth	significantly improved sensitizing activity; also recorded: better efficacy	do not cause GBM cell death	more effective in displacing the bromodomain	marked effect on tumor growth	only small tumors were detectable	–	–
O=C(/C=C/N1C[C@H]2C[C@@H]1CN2c1ccccn1)c1ccc(Cl)cc1O [IV-077, (E)-1-(4-chloro-2-hydroxyphenyl)-3-((1R,4R)-5-(pyridin-2-yl)-2,5-diazabicyclo[2.2.1]heptan-2-yl)prop-2-en-1-one]	–	–	–	potently sensitized	relatively minor effects on cell growth	–	do not cause GBM cell death	–	–	–	significantly improved sensitizing activity	–
O=C(/C=C/N1C[C@H]2C[C@@H]1CN2c1ccccn1)c1ccccc1Cl [IV-085, (E)-1-(2-chlorophenyl)-3-((1R,4R)-5-(pyridin-2-yl)-2,5-diazabicyclo [2.2.1]heptan-2-yl) prop-2-en-1-one]	–	–	–	potently sensitized	relatively minor effects on cell growth	–	do not cause GBM cell death	–	marked effect on tumor growth	only small tumors were detectable	significantly improved sensitizing activity	greatest effect

From patent publication US12329755B2, “Bromodomain inhibitors to target therapy-resistant cancer” (University of Tennessee Research Foundation, priority 2019, dated 2025)
